The supplement of paper PMC10307832

Legend:
Assay in all cases: relative viability (nuclei count vs DMSO), 5 days (fraction); higher = more cells survive
Metformin + Trametinib = compound: CN(C)C(=N)NC(=N)N [Metformin] + CC(=O)Nc1cccc(-n2c(=O)n(C3CC3)c(=O)c3c(Nc4ccc(I)cc4F)n(C)c(=O)c(C)c32)c1 [Trametinib] (partner 0.02 µM)
Method in brief: (§1)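 Dosing by pin tool came one day after lung cancer cell lines were seeded in 1536-well plates, using either one drug or a fixed anchor-drug dose plus five library-drug doses (not always all listed) in √10 steps. After 5 days, nuclei were counted on 4× images. Relative viability is treated-well nuclei count divided by vehicle-well nuclei count, and values are medians of duplicate plates.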

Apatinib + Navitoclax = compound: N#CC1(c2ccc(NC(=O)c3cccnc3NCc3ccncc3)cc2)CCCC1 [Apatinib] + CC1(C)CCC(c2ccc(Cl)cc2)=C(CN2CCN(c3ccc(C(=O)NS(=O)(=O)c4ccc(N[C@H](CCN5CCOCC5)CSc5ccccc5)c(S(=O)(=O)C(F)(F)F)c4)cc3)CC2)C1 [Navitoclax] (partner 0.5 µM)
Method in brief: as §1

Apatinib = compound: N#CC1(c2ccc(NC(=O)c3cccnc3NCc3ccncc3)cc2)CCCC1 [Apatinib]
Method in brief: (§2)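 Lung cancer cell lines received five library-drug doses (not always all listed) spaced by √10, pinned on vehicle-anchored 1536-well plates after an overnight stay at 37 °C. Five days later, with no medium change, nuclei were Hoechst-stained, imaged at 4× and counted with MetaXpress. Viability is treated-well nuclei relative to vehicle-well nuclei, as a median across plates. Passing plates had control CV below 25% and at least one doubling.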

Metformin = compound: CN(C)C(=N)NC(=N)N [Metformin]
Method in brief: as §2

Cell Line	relative viability (Metformin + Trametinib; first compound 10 µM)	relative viability (Metformin + Trametinib; first compound 31.62 µM)	relative viability (Metformin + Trametinib; first compound 100 µM)	relative viability (Metformin + Trametinib; first compound 316.23 µM)	relative viability (Metformin + Trametinib; first compound 1000 µM)	relative viability (Apatinib + Navitoclax; first compound 0.08 µM)	relative viability (Apatinib + Navitoclax; first compound 0.253 µM)	relative viability (Apatinib + Navitoclax; first compound 0.8 µM)	relative viability (Apatinib + Navitoclax; first compound 2.53 µM)	relative viability (Apatinib + Navitoclax; first compound 8 µM)	relative viability (Apatinib; 0.08 µM)	relative viability (Apatinib; 0.253 µM)	relative viability (Apatinib; 0.8 µM)	relative viability (Apatinib; 2.53 µM)	relative viability (Apatinib; 8 µM)	relative viability (Metformin; 10 µM)	relative viability (Metformin; 31.62 µM)	relative viability (Metformin; 100 µM)	relative viability (Metformin; 316.23 µM)	relative viability (Metformin; 1000 µM)
NCI-H2126	0.517	0.538	0.563	0.504	0.587	0.9	0.859	0.826	0.811	0.802	0.975	0.904	0.969	0.918	1.02	0.905	0.992	0.981	0.932	1.03
NCI-H1395	0.945	1.05	0.896	0.974	0.756	1.1	1.13	1.09	1.02	0.957	0.914	1.11	0.964	0.685	0.844	1.06	1.3	0.96	0.956	0.521
NCI-H1355	0.416	0.356	0.395	0.474	0.427	0.944	0.929	0.848	0.815	0.65	0.993	0.962	0.956	0.9	0.885	0.838	0.953	0.963	0.992	1.05
NCI-H1792	0.566	0.483	0.567	0.431	0.433	0.572	0.596	0.569	0.559	0.592	0.884	0.883	0.887	0.863	0.725	0.901	0.969	1.06	1.01	1.05
NCI-H596	0.965	0.899	1.01	0.706	0.872	1.03	1.11	0.927	0.945	0.857	0.939	1.03	0.94	0.911	0.882	1.17	1.14	1.02	1.06	1.09
NCI-H23	0.433	0.492	0.384	0.385	0.575	1.01	0.931	0.742	0.725	0.794	1.08	0.977	0.912	0.937	0.88	0.919	1.17	0.969	0.997	1.13
HCC-15	–	0.396	0.4	0.37	0.395	0.733	0.718	0.681	0.608	0.653	1.1	0.978	0.971	0.909	0.841	–	1.08	1	0.926	1.05
HCC-44	–	1.04	1.12	0.931	0.989	0.961	1.05	0.979	0.946	0.892	0.959	0.941	0.95	0.913	0.922	0.938	0.997	1.02	0.909	0.956
COR-L23	0.538	0.506	0.5	0.456	0.506	1.05	1.02	0.871	0.885	0.827	1.04	0.942	1.05	0.914	0.865	0.979	1.06	0.974	0.977	1
HCC-78	–	1.3	1.15	1.1	0.541	0.884	0.631	0.821	0.58	0.648	0.967	0.847	1.01	0.803	0.858	0.857	1.03	1.27	0.968	1.14
UMC-11	0.552	0.687	0.727	0.77	0.572	0.343	0.335	0.319	0.247	0.266	1.06	0.866	0.942	0.899	0.885	0.961	1.02	1.06	0.96	0.992
NCI-H3122	0.163	0.21	0.258	0.188	0.209	1.07	0.965	1.01	1.08	1.04	1	0.988	0.98	0.969	1.03	0.817	0.939	0.891	0.819	0.872
BEN	1.25	1.5	1.43	1.13	1.21	0.0553	0.0606	0.0462	0.0661	0.0637	1	0.92	1.02	0.821	0.807	1.26	1.4	1.29	1.17	1.47
LU99A	0.524	0.482	0.544	0.433	0.448	0.876	0.851	0.745	0.721	0.732	0.923	1.11	0.95	0.925	0.83	0.946	0.894	0.785	0.792	0.915
EKVX	–	0.196	0.354	0.265	0.334	0.882	0.946	0.98	0.888	0.826	0.869	0.904	0.984	0.873	0.877	0.756	0.95	1.07	0.922	1.03
NCI-H1437	0.638	0.703	0.631	0.701	0.627	1.12	1.14	0.939	0.928	0.776	0.949	0.995	0.996	0.83	0.799	1.09	1.16	1.01	1.04	1.08
